# Tests used:
# macrophages = test: Secreted pro-inflammatory cytokines from macrophage culture supernatants (ELISA); type: cell-based, human; settings: transfected macrophages, TNF-α, IL1-β and IL12p70 by ELISA (FIG. 8B)
# Protocol: Macrophages were generated through incubation of freshly isolated monocytes with 100 ng/mL M-CSF for 4 days. These macrophages were then transfected with siGFP or siVentX, respectively, and further cultured in RPMI 1640 medium for additional 3 days. Thereafter, cells were exposed to 1 μg/mL LPS plus 20 ng/mL γ-IFN for 6 hours. (A) Surface staining of CD40, CD80, CD86 and HLA-DR and intracellular staining of TNF-α and IL1-β were analyzed by flow cytometry. (B) Secreted TNF-α, IL1-β and IL12p70 from culture supernatants were determined with ELISA kits. (C) Reactive oxygen species (ROS) from siGFP or siVentX transfected macrophages were analyzed with fluorescence microscope (left) and flow cytometry (middle). […] (D) Nitrate level from siGFP and siVentX transfected macrophages. Data represent mean+SD of three different experiments. (E) Phagocytosis of siGFP and siVentX transfected macrophage. Red histogram represents transfection with siGFP; green histogram represents transfection with siVentX. Left panel: cells were incubated on ice; right panel: cells were incubated at 37° C. (F) Effects of VentX knockdown on mixed lymphocyte reaction. […]
# Levels of IL-1β and TNF-α and IL12p70 in the supernatants of E. coli LPS (Sigma) and IFN-γ (PeproTech) treated macrophage or LPS treated U937 cells were quantified using ELISA kits obtained from eBiosciences. […]
# primary monocytes = test: Monocyte to macrophage differentiation after siRNA transfection, surface markers by FACS; type: cell-based, human
# Protocol: (A) knockdown of VentX expression in primary monocytes by RNA interference. Monocytes were transfected with siRNA against GFP or VentX through electroporation. VentX mRNA levels were determined by real time PCR at 3 days after transfection (left); VentX protein level was determined by western blotting at 4 days after transfection (right). (B) Effects of VentX knockdown on macrophage morphogenesis during M-CSF induced differentiation. Monocytes were transfected with either siGFP or siVentX and subsequently exposed to 100 ng/mL M-CSF. […] Magnification of photographs, ×200. Note: a portion of cells lost their original morphology during Wright-Giemsa staining procedure. (C) Effects of VentX knockdown on macrophage surface expression of CD71. […] Filled blue histogram represents the isotope control staining; red histogram represents monocytes transfected with siGFP; green histogram represents monocytes transfected with siVentX. (D) Bar graphs show mean+SD of 6 different experiments in (C). Paired t test was used to reveal the statistical significance. **p<0.01.
# (A) Left panel: Flow cytometry analysis of indicated surface markers in monocytes transfected with siGFP or siVentX, respectively; right panel: bar graphs show the mean+SD of at least three separate experiments. *p<0.05; **p<0.01. (B) Effects of VentX knockdown on macrophage viability. Monocytes were transfected with either siGFP or siVentX and subsequently exposed to 100 ng/mL M-CSF for 3 days. Cells were then harvested and stained with PI and Annexin V and analyzed by flow cytometry. (C) Effects of VentX knockdown on phagocytosis. Monocytes were transfected with siGFP or siVentX. Phagocytosis assays were carried out as described in materials and methods. […]
# Surface expression of CD71 was determined by FACS analysis at 4 days after siRNA transfection. […]
# Peripheral blood mononuclear cells (PBMC) from healthy adult donors at Children's Hospital Boston were isolated by Ficoll density gradient centrifugation. […] The purity of freshly isolated CD14^+ monocytes was more than 95% as analyzed by flow cytometry. […]
substance,measurement,setting,value
"siVentX: VentX siRNA, forward 5′-UUCAGAAUCGCCGCAUGAAACACAAACGG-3′ (SEQ ID NO:4), reverse SEQ ID NO:5 (antisense CCGUUUGUGUUUCAUGCGGCGAUUCUGAA; listed as RNA, chemistry not given here)",pro-inflammatory cytokine secretion,macrophages,significant reduction
same,macrophage differentiation by GM-CSF or IL3,"primary monocytes; monocytes, 100 ng/mL GM-CSF or IL3, CD71 at 4 days (FIG. 15)",blocked macrophage differentiation
same,"expression of macrophage phenotypic markers CD64, CD40, CD86, CD11b and CD11c","primary monocytes; transfected monocytes, M-CSF, compared with siGFP transfected control cells (FIG. 3A)",significantly down-regulated

# Reference: US10066272B2, “Human homeobox gene ventx and macrophage terminal differentiation and activation, compositions and methods thereof” (priority 2011, dated 2018)
